One assay has as its system fatty acid synthesis. The assay can be described thus: In Vivo Fatty Acid Synthesis Study ([C14]-acetate incorporated into rat liver tissue). The conditions noted are these: oral, FIG. 8 and FIG. 16. The protocol:
Compounds of the present invention were also assayed in an In Vivo Fatty Acid Synthesis Study as described by Harwood et al. “Isozyme-nonselective N-Substituted Bipiperidylcarboxamide Acetyl-CoA Carboxylase Inhibitors Reduce Tissue Malonyl-CoA Concentrations, Inhibit Fatty Acid Synthesis, and Increase Fatty Acid Oxidation in Cultured Cells and in Experimental Animals” Journal of Biological Chemistry (2008) 278, 37099-37111. An exemplary procedure for the assay, which measures the amount of radioactive [C^14]-acetate incorporated into rat liver tissue, follows.
Animals given food ad water ad libitum were treated orally at a volume of 1.0 mL/200 g body weight (rat) with either an aqueous solution containing 0.5% methylcellulose (vehicle), or an aqueous solution containing 0.5% methylcellulose plus test compound. One to four hours after compound administration, animals received an intraperitoneal injection of 0.5 mL of [C^14]-acetate (64 uCi/mL; […]). […] The pooled organic fractions were transferred to liquid scintillation vials, dried under nitrogen, dissolved in 7 mL of Aquasol liquid scintillation fluid, and assessed for radioactivity using a Beckman 6500 liquid scintillation counter. Results were recorded as disintigrations per minute (DPM) per milligram of tissue.

For the next assay, the target named is ACC1 (Homo sapiens, UniProt Q13085). The assay can be described thus: In vitro ACC1 inhibition assay (ADP-Glo). It counts as biochemical. The essentials: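 Enzyme (human ACC1 or ACC2) and compound, serially diluted 1:3 over 11 points from a 600 uM DMSO stock, were preincubated 15 min before substrate addition.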
In the next assay the test system is C. albicans ATCC 90028. The assay can be described thus: Anti-Fungal Activity Assay (broth microtiter MIC). It counts as cell-based. The conditions noted are these: 3 replicates, test compounds read at 48 h.
For another assay, the system named is C. krusei ATCC 6258. The assay can be described thus: Anti-Fungal Activity Assay (broth microtiter MIC). It counts as cell-based. The following applies: 3 replicates, test compounds read at 48 h.
The test system of assay [1] is C. parapsilosis ATCC 22019. Nature of the assay: Anti-Fungal Activity Assay (broth microtiter MIC). It counts as cell-based. The conditions noted are these: 3 replicates, test compounds read at 48 h.

This note sets out measurements from patent publication US9453026B2, “ACC inhibitors and uses thereof” (Gilead Apollo, Inc., priority 2011, dated 2016).

Like-named read-outs stand apart in the source and are kept apart here.

One may read the IC50 as the concentration at which inhibition is half-maximal. Low readings indicate inhibition by little substance, high ones a need for much substance. Broadly, the MIC is the least concentration at which growth counts as inhibited.

On to `COc1ccccc1[C@H](Cn1c(=O)n(C(C)(C)C(=O)O)c(=O)c2c(C)c(-c3ncco3)sc21)OC1CCOCC1` [I-181, 2-[1-[2-(2-methoxyphenyl)-2-(oxan-4-yloxy)ethyl]-5-methyl-6-(1,3-oxazol-2-yl)-2,4-dioxo-1H,2H,3H,4H-thieno[2,3-d]pyrimidin-3-yl]-2-methylpropanoic acid], for which the “ED50, fatty acid synthesis in rats” value in the assay on fatty acid synthesis is reported as “less than 0.3 mg/Kg body weight”. The compound further displayed an IC50 on ACC1 of under 100 nM. Also, the minimal inhibitory concentration (MIC) in the assay on C. albicans ATCC 90028 is over 64 µg/mL; in the assay with C. albicans ATCC 90028 (Candida albicans, ATCC90028, 48 h, read-out: MIC) it was over 64 µg/mL; with C. krusei ATCC 6258 it was over 64 µg/mL; in the assay with C. krusei ATCC 6258 (Pichia kudriavzevii, ATCC6258, 48 h, read-out: MIC), over 64 µg/mL; in assay [1], over 64 µg/mL; in assay [1] (Lodderomyces parapsilosis, ATCC22019, 48 h, read-out: MIC), over 64 µg/mL.
